{
  "source": "patent US20250136596A1",
  "about": "“MEMBRANE-ASSOCIATED TYROSINE- AND THREONINE-SPECIFIC CDC2-INHIBITORY KINASE (PKMYT1) INHIBITORS AND USES THEREOF” (Insilico Medicine IP Limited, priority 2022, published 2025)",
  "biological_target": "PKMYT1 (Homo sapiens (Human), UniProt Q99640)",
  "sequence (Q99640 whole entry)": "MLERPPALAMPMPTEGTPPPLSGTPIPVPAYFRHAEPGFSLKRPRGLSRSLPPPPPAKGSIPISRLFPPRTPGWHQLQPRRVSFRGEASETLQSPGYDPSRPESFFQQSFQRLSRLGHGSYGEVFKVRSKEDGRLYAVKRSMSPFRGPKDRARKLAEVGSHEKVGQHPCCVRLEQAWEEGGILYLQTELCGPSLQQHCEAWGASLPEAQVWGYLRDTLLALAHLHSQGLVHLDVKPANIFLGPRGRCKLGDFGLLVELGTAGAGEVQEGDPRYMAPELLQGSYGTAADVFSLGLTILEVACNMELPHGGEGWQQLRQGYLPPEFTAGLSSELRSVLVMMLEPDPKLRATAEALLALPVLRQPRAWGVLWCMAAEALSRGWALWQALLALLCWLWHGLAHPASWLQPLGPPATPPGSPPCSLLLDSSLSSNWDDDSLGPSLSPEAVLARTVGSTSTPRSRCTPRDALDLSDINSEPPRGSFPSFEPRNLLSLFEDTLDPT",
  "test": "PKMYT1 HTRF Assay",
  "type": "binding",
  "settings": "Tracer 178, GST-Tb; compound 10 μM to 0.5 nM; read-out: MYT1 HTRF IC50",
  "procedure": "Example A: PKMYT1 HTRF Assay\nCompound serial dilution is performed by Echo, and the final concentrations vary from 10 μM to 0.5 nM. This was filled by the addition of 5 μL/well of Enzyme solution to the assay plate containing the compound. The plate was centrifuged at 1000 rpm for 1 minute, and incubate 15 minutes at 25 ? . Then 5 μL/well of tracer solution (Tracer 178) was added to initiate the reaction, and incubate for 60 minutes at 25° C. Next 5 μL GST-Tb was added into the assay plate, the plate was centrifuged at 1000 rpm for 1 minute, and incubate for 15 minutes at 25 ? . The assay plate was read on Envision.",
  "data": [
    {"smiles": "Cc1ccc(O)c(C)c1-c1cnc2[nH]c(-c3cn[nH]c(=O)c3)cc2c1C#N", "note": "[Example 134]", "values": [
      {"measurement": "IC50", "result": "< 10", "unit": "nM"}
    ]},
    {"smiles": "Cc1ccc(O)c(C)c1-c1cnc2[nH]c(-c3cnc(N4CC(C)(O)C4)nc3)c(Cl)c2n1", "note": "[Example 17, 1-(5-(7-chloro-2-(3-hydroxy-2,6-dimethylphenyl)-5H-pyrrolo[2,3-b]pyrazin-6-yl)pyrimidin-2-yl)-3-methylazetidin-3-ol]", "values": [
      {"measurement": "IC50", "result": "< 10", "unit": "nM"}
    ]},
    {"smiles": "Cc1ccc(O)c(C)c1-c1cnc2[nH]c(-c3cnc(N(C)C4COC4)nc3)cc2c1C#N", "note": "[Example 96, (R)-5-(3-hydroxy-2,6-dimethylphenyl)-2-(2-(methyl(oxetan-3-yl)amino)pyrimidin-5-yl)-1H-pyrrolo[2,3-b]pyridine-4-carbonitrile]", "values": [
      {"measurement": "IC50", "result": "10 to 50", "unit": "nM"}
    ]},
    {"smiles": "Cc1ccc(O)c(C)c1-c1cnc2[nH]c(-c3cnn(C4CCOCC4)c(=O)c3)c(Cl)c2c1C#N", "note": "[Example 68, (R)-3-chloro-5-(3-hydroxy-2,6-dimethylphenyl)-2-(6-oxo-1-(tetrahydro-2H-pyran-4-yl)-1,6-dihydropyridazin-4-yl)-1H-pyrrolo[2,3-b]pyridine-4-carbonitrile]", "values": [
      {"measurement": "IC50", "result": "< 10", "unit": "nM"}
    ]},
    {"smiles": "Cc1ccc(-c2cc3c(Cl)c(-c4c(C)ccc(O)c4C)cnc3[nH]2)cn1", "note": "[Example 10, 3-(4-chloro-2-(6-methylpyridin-3-yl)-1H-pyrrolo[2,3-b]pyridin-5-yl)-2,4-dimethylphenol]", "values": [
      {"measurement": "IC50", "result": "< 10", "unit": "nM"}
    ]},
    {"smiles": "Cc1ccc(O)c(C)c1-c1cnc2[nH]c(-c3cnn(CC(C)(C)O)c3)cc2c1C#N", "note": "[Example 117, (S)-5-(3-hydroxy-2,6-dimethylphenyl)-2-(1-(2-hydroxy-2-methylpropyl)-1H-pyrazol-4-yl)-1H-pyrrolo[2,3-b]pyridine-4-carbonitrile]", "values": [
      {"measurement": "IC50", "result": "< 10", "unit": "nM"}
    ]},
    {"smiles": "Cc1ccc(O)c(C)c1-c1cnc2[nH]c(-c3cnc(N4CC(O)C4)nc3)c(Cl)c2c1C#N", "note": "[Example 46, (R)-3-chloro-5-(3-hydroxy-2,6-dimethylphenyl)-2-(2-(3-hydroxyazetidin-1-yl)pyrimidin-5-y1)-1H-pyrrolo[2,3-b]pyridine-4-carbonitrile]", "values": [
      {"measurement": "IC50", "result": "< 10", "unit": "nM"}
    ]},
    {"smiles": "Cc1ccc(O)c(C)c1-c1cnc2[nH]c(-c3cnc(N4CCCC4CO)nc3)c(Cl)c2c1C#N", "note": "(stereo not drawn) [Example 74, 3-chloro-5-(3-hydroxy-2,6-dimethylphenyl)-2-(2-(2-(hydroxymethyl)pyrrolidin-1-yl)pyrimidin-5-yl)-1H-pyrrolo[2,3-b]pyridine-4-carbonitrile]", "values": [
      {"measurement": "IC50", "result": "< 10", "unit": "nM"}
    ]},
    {"smiles": "Cc1ncc(-c2[nH]c3ncc(-c4c(C)ccc(O)c4C)c(C#N)c3c2C(F)(F)F)cn1", "note": "[Example 112, 5-(3-hydroxy-2,6-dimethylphenyl)-2-(2-methylpyrimidin-5-yl)-3-(trifluoromethyl)-1H-pyrrolo[2,3-b]pyridine-4-carbonitrile]", "values": [
      {"measurement": "IC50", "result": "10 to 50", "unit": "nM"}
    ]},
    {"smiles": "Cc1ncc(-c2[nH]c3ncc(-c4c(C)ccc(O)c4C)nc3c2F)cn1", "note": "[Example 12, 3-(7-fluoro-6-(2-methylpyrimidin-5-yl)-5H-pyrrolo[2,3-b]pyrazin-2-yl)-2,4-dimethylphenol]", "values": [
      {"measurement": "IC50", "result": "10 to 50", "unit": "nM"}
    ]},
    {"smiles": "Cc1ccc(O)c(C)c1-c1cnc2[nH]c(-c3cnc[nH]3)cc2c1C#N", "note": "[Example 125, (S)-5-(3-hydroxy-2,6-dimethylphenyl)-2-(1H-imidazol-5-yl)-1H-pyrrolo[2,3-b]pyridine-4-carbonitrile]", "values": [
      {"measurement": "IC50", "result": "< 10", "unit": "nM"}
    ]},
    {"smiles": "Cc1ccc(O)c(C)c1-c1cnc2[nH]c(-c3cnc(N)nc3)c(Cl)c2c1C#N", "note": "[Example 40, (R)-2-(2-aminopyrimidin-5-yl)-3-chloro-5-(3-hydroxy-2,6-dimethylphenyl)-1H-pyrrolo[2,3-b]pyridine-4-carbonitrile]", "values": [
      {"measurement": "IC50", "result": "< 10", "unit": "nM"}
    ]},
    {"smiles": "Cc1ccc(O)c(C)c1-c1cnc2[nH]c(-c3cnc(CN4CC(F)(F)C4)nc3)cc2c1C#N", "note": "[Example 94, (R)-2-(2-((3,3-difluoroazetidin-1-yl)methyl)pyrimidin-5-yl)-5-(3-hydroxy-2,6-dimethylphenyl)-1H-pyrrolo[2,3-b]pyridine-4-carbonitrile]", "values": [
      {"measurement": "IC50", "result": "< 10", "unit": "nM"}
    ]},
    {"smiles": "Cc1ccc(O)c(C)c1-c1cnc2[nH]c(-c3cnc(OC(F)F)nc3)cc2c1C#N", "note": "[Example 85, 2-(2-(difluoromethoxy)pyrimidin-5-yl)-5-(3-hydroxy-2,6-dimethylphenyl)-1H-pyrrolo[2,3-b]pyridine-4-carbonitrile]", "values": [
      {"measurement": "IC50", "result": "< 10", "unit": "nM"}
    ]},
    {"smiles": "Cc1ncc(-c2[nH]c3ncc(-c4c(C)ccc(O)c4C)c(C#N)c3c2C2CC2)cn1", "note": "[Example 108, 3-cyclopropyl-5-(3-hydroxy-2,6-dimethylphenyl)-2-(2-methylpyrimidin-5-yl)-1H-pyrrolo[2,3-b]pyridine-4-carbonitrile]", "values": [
      {"measurement": "IC50", "result": "10 to 50", "unit": "nM"}
    ]},
    {"smiles": "Cc1ccc(O)c(C)c1-c1cnc2[nH]c(-c3cnc(N)nc3)nc2c1C#N", "note": "[Example 116, (S)-2-(2-aminopyrimidin-5-yl)-6-(3-hydroxy-2,6-dimethylphenyl)-3H-imidazo[4,5-b]pyridine-7-carbonitrile]", "values": [
      {"measurement": "IC50", "result": "< 10", "unit": "nM"}
    ]},
    {"smiles": "Cc1ccc(O)c(C)c1-c1cnc2[nH]c(-c3cnc(C(C)(C)O)nc3)cc2c1C#N", "note": "[Example 86, 5-(3-hydroxy-2,6-dimethylphenyl)-2-(2-(2-hydroxypropan-2-yl)pyrimidin-5-yl)-1H-pyrrolo[2,3-b]pyridine-4-carbonitrile]", "values": [
      {"measurement": "IC50", "result": "< 10", "unit": "nM"}
    ]},
    {"smiles": "COCCOc1ncc(-c2[nH]c3ncc(-c4c(C)ccc(O)c4C)c(C#N)c3c2Cl)cn1", "note": "[Example 76, (R)-3-chloro-5-(3-hydroxy-2,6-dimethylphenyl)-2-(2-(2-methoxyethoxy)pyrimidin-5-yl)-1H-pyrrolo[2,3-b]pyridine-4-carbonitrile]", "values": [
      {"measurement": "IC50", "result": "< 10", "unit": "nM"}
    ]},
    {"smiles": "Cc1ccc(O)c(C)c1-c1cnc2[nH]c(-c3cnoc3)cc2c1C#N", "note": "[Example 119, (S)-5-(3-hydroxy-2,6-dimethylphenyl)-2-(isoxazol-4-yl)-1H-pyrrolo[2,3-b]pyridine-4-carbonitrile]", "values": [
      {"measurement": "IC50", "result": "< 10", "unit": "nM"}
    ]},
    {"smiles": "Cc1ccc(O)c(C)c1-c1cnc2[nH]c(-c3cnc(NC4CC4)s3)nc2c1", "note": "[Example 115, 3-(2-(2-(cyclopropylamino)thiazol-5-yl)-3H-imidazo[4,5-b]pyridin-6-yl)-2,4-dimethylphenol]", "values": [
      {"measurement": "IC50", "result": "50 to 500", "unit": "nM"}
    ]},
    {"smiles": "COCCn1ncc(-c2[nH]c3ncc(-c4c(C)ccc(O)c4C)c(C#N)c3c2Cl)cc1=O", "note": "[Example 67, (R)-3-chloro-5-(3-hydroxy-2,6-dimethylphenyl)-2-(1-(2-methoxyethyl)-6-oxo-1,6-dihydropyridazin-4-yl)-1H-pyrrolo[2,3-b]pyridine-4-carbonitrile]", "values": [
      {"measurement": "IC50", "result": "< 10", "unit": "nM"}
    ]},
    {"smiles": "Cc1ccc(O)c(C)c1-c1cnc2[nH]c(-c3cnc(N4CC(C(=O)O)C4)nc3)c(Cl)c2c1C#N", "note": "[Example 70, (R)-1-(5-(3-chloro-4-cyano-5-(3-hydroxy-2,6-dimethylphenyl)-1H-pyrrolo[2,3-b]pyridin-2-yl)pyrimidin-2-yl)azetidine-3-carboxylic acid]", "values": [
      {"measurement": "IC50", "result": "< 10", "unit": "nM"}
    ]},
    {"smiles": "Cc1ccc(O)c(C)c1-c1cnc2[nH]c(-c3cnc(N4CCOC4=O)nc3)c(Cl)c2c1C#N", "note": "[Example 82, (R)-3-chloro-5-(3-hydroxy-2,6-dimethylphenyl)-2-(2-(2-oxooxazolidin-3-yl)pyrimidin-5-yl)-1H-pyrrolo[2,3-b]pyridine-4-carbonitrile]", "values": [
      {"measurement": "IC50", "result": "< 10", "unit": "nM"}
    ]},
    {"smiles": "Cc1ccc(O)c(C)c1-c1cnc2[nH]c(-c3cnc(NC4COC4)nc3)cc2c1C#N", "note": "[Example 98, (R)-5-(3-hydroxy-2,6-dimethylphenyl)-2-(2-(oxetan-3-ylamino)pyrimidin-5-yl)-1H-pyrrolo[2,3-b]pyridine-4-carbonitrile]", "values": [
      {"measurement": "IC50", "result": "< 10", "unit": "nM"}
    ]},
    {"smiles": "Cc1ncc(-c2[nH]c3ncc(-c4c(C)ccc(O)c4C)c(C#N)c3c2Sc2ccccc2)cn1", "note": "[Example 113, 5-(3-hydroxy-2,6-dimethylphenyl)-2-(2-methylpyrimidin-5-yl)-3-(phenylthio)-1H-pyrrolo[2,3-b]pyridine-4-carbonitrile]", "values": [
      {"measurement": "IC50", "result": "50 to 500", "unit": "nM"}
    ]},
    {"smiles": "Cc1ncc(-c2[nH]c3ncc(-c4c(C)ccc(O)c4C)c(Cl)c3c2F)cn1", "note": "[Example 24, (S)-3-(4-chloro-3-fluoro-2-(2-methylpyrimidin-5-yl)-1H-pyrrolo[2,3-b]pyridin-5-yl)-2,4-dimethylphenol]", "values": [
      {"measurement": "IC50", "result": "< 10", "unit": "nM"}
    ]},
    {"smiles": "Cc1ccc(O)c(C)c1-c1cnc2[nH]c(-c3cnc4[nH]cnc4c3)cc2c1C#N", "note": "[Example 63, (R)-5-(3-hydroxy-2,6-dimethylphenyl)-2-(3H-imidazo[4,5-b]pyridin-6-y1)-1H-pyrrolo[2,3-b]pyridine-4-carbonitrile]", "values": [
      {"measurement": "IC50", "result": "< 10", "unit": "nM"}
    ]},
    {"smiles": "Cc1ccc(O)c(C)c1-c1cnc2[nH]c(-c3cnc(N4CC(C(N)=O)C4)nc3)cc2c1C#N", "note": "[Example 71, (R)-1-(5-(4-cyano-5-(3-hydroxy-2,6-dimethylphenyl)-1H-pyrrolo[2,3-b]pyridin-2-yl)pyrimidin-2-yl)azetidine-3-carboxamide]", "values": [
      {"measurement": "IC50", "result": "< 10", "unit": "nM"}
    ]},
    {"smiles": "Cc1ccc(O)c(C)c1-c1cnc2[nH]c(-c3cnc(N)c(C#N)c3)cc2c1C#N", "note": "[Example 130, (S)-2-(6-amino-5-cyanopyridin-3-yl)-5-(3-hydroxy-2,6-dimethylphenyl)-1H-pyrrolo[2,3-b]pyridine-4-carbonitrile]", "values": [
      {"measurement": "IC50", "result": "< 10", "unit": "nM"}
    ]},
    {"smiles": "Cc1ccc(O)c(C)c1-c1cnc2[nH]c(C3=CCCOC3)cc2c1C#N", "note": "[Example 36, 2-(5,6-dihydro-2H-pyran-3-yl)-5-(3-hydroxy-2,6-dimethylphenyl)-1H-pyrrolo[2,3-b]pyridine-4-carbonitrile]", "values": [
      {"measurement": "IC50", "result": "10 to 50", "unit": "nM"}
    ]},
    {"smiles": "Cc1ncc(-c2nc3cc(-c4c(C)ccc(O)c4C)cnc3[nH]2)cn1", "note": "[Example 114, 2,4-dimethyl-3-(2-(2-methylpyrimidin-5-yl)-3H-imidazo[4,5-b]pyridin-6-yl)phenol]", "values": [
      {"measurement": "IC50", "result": "50 to 500", "unit": "nM"}
    ]},
    {"smiles": "Cc1ccc(O)c(C)c1-c1cnc2[nH]c(-c3cncnc3)cc2c1C#N", "note": "[Example 80, (R)-5-(3-hydroxy-2,6-dimethylphenyl)-2-(pyrimidin-5-yl)-1H-pyrrolo[2,3-b]pyridine-4-carbonitrile]", "values": [
      {"measurement": "IC50", "result": "< 10", "unit": "nM"}
    ]},
    {"smiles": "Cc1ncc(-c2[nH]c3ncc(-c4c(C)ccc(O)c4C)nc3c2C#CC(C)(C)O)cn1", "note": "[Example 20, 3-(7-(3-hydroxy-3-methylbut-1-yn-1-yl)-6-(2-methylpyrimidin-5-yl)-5H-pyrrolo[2,3-b]pyrazin-2-yl)-2,4-dimethylphenol]", "values": [
      {"measurement": "IC50", "result": "< 10", "unit": "nM"}
    ]}
  ]
}
